We go through 13 compounds from US8691993B2, “Piperidinyl naphthylacetic acids” (Hoffman-La Roche Inc., priority 2011, dated 2014).

The term IC50 denotes the concentration that inhibits the measured activity by half.

SMILES strings stand for the structures.

Sequence of human CRTH2 receptor (Q9Y5Y4 whole entry): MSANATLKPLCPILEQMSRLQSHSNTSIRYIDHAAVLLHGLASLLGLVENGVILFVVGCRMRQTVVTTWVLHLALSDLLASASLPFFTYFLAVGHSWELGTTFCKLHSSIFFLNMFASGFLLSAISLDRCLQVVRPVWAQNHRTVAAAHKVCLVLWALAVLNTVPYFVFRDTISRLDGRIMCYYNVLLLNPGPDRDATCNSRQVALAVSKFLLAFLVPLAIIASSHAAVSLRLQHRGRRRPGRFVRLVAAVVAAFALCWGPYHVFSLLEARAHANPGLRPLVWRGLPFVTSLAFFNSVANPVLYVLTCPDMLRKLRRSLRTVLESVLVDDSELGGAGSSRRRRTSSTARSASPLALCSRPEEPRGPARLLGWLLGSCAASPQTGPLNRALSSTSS

This assay addresses human CRTH2 receptor (Homo sapiens (Human), UniProt Q9Y5Y4). The assay can be described thus: Calcium Flux Assay Using Fluorometric Imaging Plate Reader (FLIPR). The class given is cell-based. Particulars: CHO-K1 cells transfected with G-alpha 16 and human CRTH2 receptor; DK-PGD2 ligand; 1 hour compound incubation. The protocol: Calcium Flux Assay Using Fluorometric Imaging Plate Reader (FLIPR)
CHO-K1 cells previously transfected with G-alpha 16 were subsequently transfected with the human CRTH2 receptor and the neomycin resistance gene. Following selection in 800 μg/mL G418 (geneticin), individual clones were assayed for their receptor expression based on staining with an anti human CRTH2 IgG, followed by assaying for their response to 13,14-dihydro-15-keto Prostaglandin D2 (DK-PDG2) (ligand) in the Ca^2+ Flux assay. Positive clones were then cloned by limiting dilution cloning. The transfected cells were cultured in Ham's F-12 medium supplemented with 10% fetal bovine serum, 2 mM glutamine, 100 U/mL penicillin/100 μg/mL streptomycin, 200 μg/mL hygromycin B, and 800 μg/mL G418 (geneticin). Cells were harvested with trypsin-EDTA (trypsin-ethylenediaminetetraacetic acid) and counted using ViaCount® reagent (from Guava Technologies, Inc. which contains two DNA-binding dyes that enable the reagent user to distinguish between viable and non-viable cells). The cell suspension volume was adjusted to 2.5×10^5 cells/mL with complete growth media. Aliquots of 50 μL were dispensed into BD Falcon™ 384 well black/clear microplates (from BD Biosciences, a division of Becton, Dickinson and Company) and the microplates were placed in a 37° C. CO2 incubator overnight. The following day, the microplates were used in the assay.
Loading Buffer containing dye (from the FLIPR® Calcium 3 Assay Kit from Molecular Devices, a division of MDS Analytical Technologies and MDS Inc.) was prepared by dissolving the contents of one bottle into 200 mL Hank's Balanced Salt Solution containing 20 mM HEPES (4-(2-hydroxyethyl)-1-piperazineethanesulfonic acid) and 2.5 mM probenecid. Growth media was removed from the cell plates and 25 μL of Hank's Balanced Salt Solution (HBSS) containing 20 mM HEPES, 0.05% BSA and 2.5 mM probenecid was added to each well followed by 25 μL of diluted dye using a Multidrop dispenser. The plates were then incubated for 1 hour at 37° C.
During the incubation, test compound plates were prepared by adding 90 μL of HBSS/20 mM HEPES/0.005% BSA buffer to the 2 μL of serial diluted compounds. To prepare serial diluted compounds, 20 mM stocks of compounds were dissolved in 100% DMSO. The compound dilution plate was set up as follows: well #1 received 5 μL of compound plus 10 μL of DMSO. Wells 2-10 received 10 μL of DMSO. 5 μL was mixed and transferred from well #1 into well #2. 1:3 serial dilutions were continued out 10 steps. 2 μL of diluted compound was transferred into duplicate wells of a 384 well “assay plate” and then 90 μL of buffer was added.
After incubation, both the cell and “assay plate” plates were brought to the fluorometric imaging plate reader (FLIPR®) and 20 μL of the diluted compounds were transferred to the cell plates by the FLIPR®. Plates were then incubated for 1 hour at room temperature. After the 1 hour incubation, plates were returned to the FLIPR® and 20 μL of 4.5× concentrated ligand was added to the cell plates. During the assay, fluorescence readings were taken simultaneously from all 384 wells of the cell plate every 1.5 seconds. Five readings were taken to establish a stable baseline, then 20 μL of sample was rapidly (30 μL/sec) and simultaneously added to each well of the cell plate. The fluorescence was continuously monitored before, during and after sample addition for a total elapsed time of 100 seconds. Responses (increase in peak fluorescence) in each well following agonist addition were determined. The initial fluorescence reading from each well, prior to ligand stimulation, was used as a zero baseline value for the data from that well. The responses were expressed as % inhibition of the buffer control. […]
In the case of `O=C(O)Cc1cc(C2CCN(S(=O)(=O)c3ccccc3)CC2)c2cc(F)ccc2c1` [Example 1, [4-(1-Benzenesulfonyl-piperidin-4-yl)-6-fluoro-naphthalen-2-yl]-acetic acid], the IC50 stood at 18 nM.
For the compound `Cc1ccc(S(=O)(=O)N2CCC(c3cc(CC(=O)O)cc4ccc(F)cc34)CC2)cc1` [Example 2, {6-Fluoro-4-[1-(toluene-4-sulfonyl)-piperidin-4-yl]-naphthalen-2-yl}-acetic acid], the IC50 is 53 nM.
As for `O=C(O)Cc1cc(C2CCN(S(=O)(=O)c3ccccn3)CC2)c2cc(F)ccc2c1` [Example 3, {6-Fluoro-4-[1-(pyridine-2-sulfonyl)-piperidin-4-yl]-naphthalen-2-yl}-acetic acid], the IC50 stood at 104 nM.
In the case of `O=C(O)Cc1cc(C2CCN(S(=O)(=O)c3cccnc3)CC2)c2cc(F)ccc2c1` [Example 4, {6-Fluoro-4-[1-(pyridine-3-sulfonyl)-piperidin-4-yl]-naphthalen-2-yl}-acetic acid], the IC50 stood at 1740 nM.
Take `O=C(O)Cc1cc(C2CCN(S(=O)(=O)c3ccncc3)CC2)c2cc(F)ccc2c1` [Example 5, {6-Fluoro-4-[1-(pyridine-4-sulfonyl)-piperidin-4-yl]-naphthalen-2-yl}-acetic acid]: the IC50 was 898 nM.
The figure for `O=C(O)Cc1cc(C2CCN(S(=O)(=O)c3ccccc3Cl)CC2)c2cc(F)ccc2c1` [Example 6, {4-[1-(2-Chloro-benzenesulfonyl)-piperidin-4-yl]-6-fluoro-naphthalen-2-yl}-acetic acid] is 2.5 nM.
Take `O=C(O)Cc1cc(C2CCN(S(=O)(=O)c3cccc(Cl)c3)CC2)c2cc(F)ccc2c1` [Example 7, {4-[1-(3-Chloro-benzenesulfonyl)-piperidin-4-yl]-6-fluoro-naphthalen-2-yl}-acetic acid]: the IC50 was found to be 95 nM.
The figure for `O=C(O)Cc1cc(C2CCN(S(=O)(=O)c3ccc(Cl)cc3)CC2)c2cc(F)ccc2c1` [Example 8, {4-[1-(4-Chloro-benzenesulfonyl)-piperidin-4-yl]-6-fluoro-naphthalen-2-yl}-acetic acid] is 42 nM; for `CS(=O)(=O)c1cccc(S(=O)(=O)N2CCC(c3cc(CC(=O)O)cc4ccc(F)cc34)CC2)c1` [Example 9, {6-Fluoro-4-[1-(3-methanesulfonyl-benzenesulfonyl)-piperidin-4-yl]-naphthalen-2-yl}-acetic acid] it is 1150 nM; for `O=C(O)Cc1cc(C2CCN(S(=O)(=O)c3cc(Cl)ccc3Cl)CC2)c2cc(F)ccc2c1` [Example 10, {4-[1-(2,5-Dichloro-benzenesulfonyl)-piperidin-4-yl]-6-fluoro-naphthalen-2-yl}-acetic acid] it is 3.5 nM.
The figure for `O=C(O)Cc1cc(C2CCN(S(=O)(=O)c3ccc(Cl)cc3Cl)CC2)c2cc(F)ccc2c1` [Example 11, {4-[1-(2,4-Dichloro-benzenesulfonyl)-piperidin-4-yl]-6-fluoro-naphthalen-2-yl}-acetic acid] is 4.8 nM; for `O=C(O)Cc1cc(C2CCN(S(=O)(=O)c3cc(Cl)cc(Cl)c3)CC2)c2cc(F)ccc2c1` [Example 12, {4-[1-(3,5-Dichloro-benzenesulfonyl)-piperidin-4-yl]-6-fluoro-naphthalen-2-yl}-acetic acid] it is 404 nM.
Turning to `O=C(O)Cc1cc(C2CCN(S(=O)(=O)c3cc(C(F)(F)F)cc(C(F)(F)F)c3)CC2)c2cc(F)ccc2c1` [Example 13, {4-[1-(3,5-Bis-trifluoromethyl-benzenesulfonyl)-piperidin-4-yl]-6-fluoro-naphthalen-2-yl}-acetic acid], the IC50 came to 1350 nM.
